We go through four molecules from patent US8680300B2, “Dioxanes derived from regrouping carbohydrates and C-glycosides, process for obtaining same and uses thereof” (Universidad de la Laguna, priority 2009, dated 2014).

One data set deals with cell line HT22. The data set is described as follows: Visualisation of HT22 cultures after exposure to the compounds. Type of data set: cell-based, mouse. To be noted: HT22, 5 μM, after 4-5 hours of treatment. As to the method:
(§1) Two stable cell lines of different origins were used for these trials: neural cell line HT22 from mouse hippocampus and line MCF7 from human breast cancer.
(§2) Both cell lines were grown in a DMEM culture medium supplemented with 10% foetal bovine serum and antibiotics at 37° C. with a 5% CO2 atmosphere. 35-mm Petri dishes were used as growth media. […] The compounds were previously diluted in DMSO.
(§3) (The control cultures of FIG. 3 were compared to the cultures of HT22 and MCF7 exposed to the compounds—FIGS. 4 and 5 respectively—).

For data set [1], the system named is neural cell line HT22. As to the kind of experiment: Cytotoxicity trial, trypan blue dye, cell line HT22. Type of data set: cell-based, mouse. To be noted: HT22, concentrations of 1 and 5 μM. The procedure:
as §1
(§4) Both cell lines were grown in a DMEM culture medium supplemented with 10% foetal bovine serum and antibiotics at 37° C. with a 5% CO2 atmosphere. 35-mm Petri dishes were used as growth media. When the cultures reached approximately 80% confluence they were exposed to the different compounds of the study for 24 hours at 37° C., at concentrations of 0.1, 1 and 5 μM. The compounds were previously diluted in DMSO.
(§5) For the cytotoxicity trials, after 24 hours of treatment with the compounds, the cells were treated with trypsin, resuspending them in DMEM and counting them. On one hand, an aliquot of 100 μl was preserved for the total count of the cells present in Neubauer chambers. On the other, the rest of the cell volume (approximately 1 ml) was processed for dyeing with trypan blue to visualise those cells susceptible to dyeing (non-viable cells) against intact cells (viable cells). To this end, the ViCell (Beckman Coulter) quantifier was used.

Data set [2] relates to MCF7 breast cancer cells. The data set is described as follows: Cytotoxicity trial, trypan blue dye, cell line MCF7. To be noted: for cytotoxicity (conclusion, in words): MCF7, concentrations of 1 and 5 μM. Type of data set: cell-based, human. As to the method:
as §1, §4, §5

The subject of the next data set is cell line MCF7. The data set is described as follows: Visualisation of MCF7 cultures after exposure to the compounds. Type of data set: cell-based, human. To be noted: MCF7, 5 μM, after 4-5 hours of treatment. As to the method:
as §1, §2, §3

Data set [3] concerns MCF7 breast cancer cells. As to the kind of experiment: Cell proliferation trial, cell line MCF7. In kind it is cell-based, human. The procedure:
as §1, §4, §5

Data set [4] concerns neural cell line HT22. As to the kind of experiment: Cell proliferation trial, cell line HT22. In kind it is cell-based, mouse. As to conditions: for antiproliferative effect (conclusion, in words): HT22; for decrease in normal proliferation: HT22, 24 hours, versus medium (DMSO at 0.01%), concentration not given. The procedure:
as §1, §4, §5

With `CO[C@H]1O[C@@H](OC(C)=O)[C@H]([C@@H](COC(C)=O)OC)O[C@@H]1OC` [Compound 6], the “cytotoxic effect on visualisation of cultures” value in the data set with cell line HT22 and in the data set on cell line MCF7 was “significant cytotoxic effect” throughout. For the same molecule, the “cytotoxicity (conclusion, in words)” value with neural cell line HT22 [1] and in the data set on MCF7 breast cancer cells [2] was “highly cytotoxic” in each case.
In the case of `CO[C@H]1O[C@@H]2OC[C@@H](OC)[C@@H]2O[C@@H]1OC` [Compound 8], in the data set with MCF7 breast cancer cells [3] (MCF7), the “antiproliferative effect (conclusion, in words)” value (“antiproliferative effect” below) is reported as “antiproliferative effects”. In addition, the “proliferation inhibition (in words)” value in the data set with MCF7 breast cancer cells [3] (MCF7, 24 hours, versus medium (DMSO at 0.01%)) is reported as “partial proliferation inhibition”. In addition, in the data set with neural cell line HT22 [4], the “antiproliferative effect” value is “antiproliferative effects” and the “decrease in normal proliferation” value is reported as “approximately 50%”.
As to `CO[C@@H]1O[C@@H]2OC[C@@H](OC)[C@@H]2O[C@@H]1OC` [Compound 9], in the data set with neural cell line HT22 [4], the “antiproliferative effect” value is “antiproliferative effects” and the “decrease in normal proliferation” value is “approximately 50%”. For the same molecule, the “toxicity (percentage of cell death, trypan blue)” value in the data set on MCF7 breast cancer cells [2] (MCF7, 24 hours, normalised to medium (DMSO at 0.01%), concentration not given) is reported as more than 65%. The “toxicity (in words)” value in the data set with MCF7 breast cancer cells [2] (MCF7, 24 hours, concentration not given) is on record as “high toxicity”.
`CO[C@@H]1O[C@@H](OC(C)=O)[C@H]([C@@H](COC(C)=O)OC)O[C@@H]1OC` [Compound 7]: the “cytotoxic effect on visualisation of cultures” value with cell line HT22 and with cell line MCF7 was “significant cytotoxic effect” each time. For the same molecule, the “cytotoxicity (conclusion, in words)” value with neural cell line HT22 [1] and in the data set with MCF7 breast cancer cells [2] was “highly cytotoxic” each time.
